Columns and labels:
bedstraw = test: Test B pre/postemergence bedstraw; type: in vivo, Galium aparine
In short: (§1)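 Herbicidal effect was estimated by eye on a ten-point control scale after plants spent twelve to sixteen days in a greenhouse following soil or foliar treatment. Foliar sprays targeted plants at one to four leaves; all doses were formulated in a non-phytotoxic solvent with surfactant.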

blackgrass = test: Test B pre/postemergence blackgrass; type: in vivo, Alopecurus myosuroides
In short: as §1

surinam grass = test: Test B pre/postemergence surinam grass; type: in vivo, Brachiaria decumbens
In short: as §1

cocklebur = test: Test B pre/postemergence cocklebur; type: in vivo, Xanthium strumarium
In short: as §1

corn = test: Test B pre/postemergence corn; type: in vivo, Zea mays
In short: as §1

crabgrass = test: Test B pre/postemergence crabgrass; type: in vivo, Digitaria sanguinalis
In short: as §1

giant foxtail = test: Test B pre/postemergence giant foxtail; type: in vivo, Setaria faberii
In short: as §1

morningglory = test: Test B pre/postemergence morningglory; type: in vivo, Ipomoea hederacea
In short: as §1

pigweed = test: Test B pre/postemergence pigweed; type: in vivo, Amaranthus retroflexus
In short: as §1

rape = test: Test B pre/postemergence rape; type: in vivo, Brassica napus
In short: as §1

soybean = test: Test B pre/postemergence soybean; type: in vivo, Glycine max
In short: as §1

sugar beet = test: Test B pre/postemergence sugar beet; type: in vivo, Beta vulgaris
In short: as §1

velvetleaf = test: Test B pre/postemergence velvetleaf; type: in vivo, Abutilon theophrasti
In short: as §1

wheat = test: Test B pre/postemergence wheat; type: in vivo, Triticum aestivum
In short: as §1

wild oat = test: Test B pre/postemergence wild oat; type: in vivo, Avena fatua
In short: as §1

purple nutsedge = test: Test B pre/postemergence purple nutsedge; type: in vivo, Cyperus rotundus
In short: as §1

rice = test: Test B flood test rice; type: in vivo, Oryza sativa
In short: (§2)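 Flood test on plants grown to the 2-leaf stage; treated plants kept in greenhouse twelve to sixteen days, then visually rated against controls on a 0 (no effect) to 10 (complete control) scale.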

smallflower flatsedge = test: Test B flood test smallflower flatsedge; type: in vivo, Cyperus difformis
In short: as §2

duck salad = test: Test B flood test duck salad; type: in vivo, Heteranthera limosa
In short: as §2

bamyardgrass = test: Test B flood test barnyardgrass; type: in vivo, Echinochloa crus-galli
In short: as §2

[1] = Postemergence, Rate 125 g/ha, scale of 0 to 10 where 0 is no effect and 10 is complete control
[2] = Rate 250 g/ha, Postemergence, scale 0 to 10, 0 is no effect, 10 is complete control
[3] = Rate 500 g/ha, Postemergence, scale 0 to 10, 0 is no effect, 10 is complete control
[4] = Postemergence, Rate 1000 g/ha, scale 0 to 10 (0 no effect, 10 complete control)
[5] = Preemergence, Rate 125 g/ha, scale of 0 to 10 where 0 is no effect and 10 is complete control
[6] = Preemergence, Rate 250 g/ha, scale 0 to 10 (0 no effect, 10 complete control)
[7] = Preemergence, Rate 500 g/ha, scale of 0 to 10 where 0 is no effect and 10 is complete control
[8] = Rate 1000 g/ha, Preemergence, scale 0 to 10 (0 no effect, 10 complete control)
[9] = Pre-emergence, Rate 1000 g/ha, scale 0 to 10 (0 no effect, 10 complete control)
[10] = Rate 125 g/ha, under heading Pre-emergence, flood test species, visual evaluation after twelve to sixteen days
[11] = Rate 250 g/ha, Pre-emergence (flood test species), scale 0 to 10, 0 is no effect, 10 is complete control
[12] = Rate 500 g/ha, Pre-emergence section of Table B, 0 to 10 scale (0 no effect, 10 complete control)
[13] = Preemergence, Rate 62 g/ha, scale of 0 to 10 where 0 is no effect and 10 is complete control
[14] = Preemergence, Rate 250 g/ha, scale 0 (no effect) to 10 (complete control)
[15] = Pre-emergence, Rate 62 g/ha, scale 0 to 10, 0 is no effect, 10 is complete control
[16] = Rate 125 g/ha, Pre-emergence section (flood test species), scale 0 to 10, 0 no effect, 10 complete control

## COC(=O)C(CCO)n1c(=O)on(C(=O)N(c2ccc(F)cc2)C(C)C)c1=O (stereo not shown) [Compound 680]
bedstraw; [1]
  Bedstraw plant response rating: 0
bedstraw; [2]
  Bedstraw plant response rating: 0
bedstraw; [3]
  Bedstraw plant response rating: 0
blackgrass; [1]
  Blackgrass plant response rating: 0
blackgrass; [4]
  Blackgrass plant response rating: 3
blackgrass; [5]
  Plant response rating, Blackgrass: 0
blackgrass; [6]
  Plant response rating, Blackgrass: 0
blackgrass; [7]
  Plant response rating, Blackgrass: 4
blackgrass; [2]
  Blackgrass plant response rating: 0
blackgrass; [3]
  Blackgrass plant response rating: 1
blackgrass; [8]
  Plant response rating, Blackgrass: 4
Surinam grass; [1]
  B. signalgrass plant response rating: 0
Surinam grass; [4]
  B. signalgrass plant response rating: 3
Surinam grass; [5]
  Plant response rating, B. signalgrass: 0
Surinam grass; [6]
  Plant response rating, B. signalgrass: 0
Surinam grass; [7]
  Plant response rating, B. signalgrass: 0
Surinam grass; [2]
  B. signalgrass plant response rating: 0
Surinam grass; [3]
  B. signalgrass plant response rating: 0
Surinam grass; [8]
  Plant response rating, B. signalgrass: 0
cocklebur; [1]
  Cocklebur plant response rating: 0
cocklebur; [4]
  Cocklebur plant response rating: 0
cocklebur; [5]
  Plant response rating, Cocklebur: 0
cocklebur; [6]
  Plant response rating, Cocklebur: 0
cocklebur; [7]
  Plant response rating, Cocklebur: 0
cocklebur; [2]
  Cocklebur plant response rating: 0
cocklebur; [3]
  Cocklebur plant response rating: 0
cocklebur; [8]
  Plant response rating, Cocklebur: 0
corn; [1]
  Corn plant response rating: 0
corn; [4]
  Corn plant response rating: 1
corn; [5]
  Plant response rating, Corn: 0
corn; [6]
  Plant response rating, Corn: 0
corn; [7]
  Plant response rating, Corn: 0
corn; [2]
  Corn plant response rating: 0
corn; [3]
  Corn plant response rating: 0
corn; [8]
  Plant response rating, Corn: 0
crabgrass; [1]
  Crabgrass plant response rating: 0
crabgrass; [4]
  Crabgrass plant response rating: 9
crabgrass; [5]
  Plant response rating, Crabgrass: 0
crabgrass; [6]
  Plant response rating, Crabgrass: 3
crabgrass; [7]
  Plant response rating, Crabgrass: 3
crabgrass; [2]
  Crabgrass plant response rating: 1
crabgrass; [3]
  Crabgrass plant response rating: 3
crabgrass; [8]
  Plant response rating, Crabgrass: 3
Giant foxtail; [1]
  Giant foxtail plant response rating: 0
Giant foxtail; [4]
  Giant foxtail plant response rating: 8
Giant foxtail; [5]
  Plant response rating, Giant foxtail: 0
Giant foxtail; [7]
  Plant response rating, Giant foxtail: 4
Giant foxtail; [2]
  Giant foxtail plant response rating: 0
Giant foxtail; [3]
  Giant foxtail plant response rating: 5
Giant foxtail; [8]
  Plant response rating, Giant foxtail: 7
morningglory; [1]
  Morningglory plant response rating: 1
morningglory; [4]
  Morningglory plant response rating: 7
morningglory; [5]
  Plant response rating, Morningglory: 0
morningglory; [7]
  Plant response rating, Morningglory: 0
morningglory; [2]
  Morningglory plant response rating: 1
morningglory; [3]
  Morningglory plant response rating: 1
morningglory; [8]
  Plant response rating, Morningglory: 0
pigweed; [1]
  Redroot pigweed plant response rating: 0
pigweed; [4]
  Redroot pigweed plant response rating: 5
pigweed; [5]
  Plant response rating, Redroot pigweed: 0
pigweed; [7]
  Plant response rating, Redroot pigweed: 3
pigweed; [2]
  Redroot pigweed plant response rating: 0
pigweed; [3]
  Redroot pigweed plant response rating: 0
pigweed; [8]
  Plant response rating, Redroot pigweed: 7
rape; [1]
  Rape plant response rating: 0
rape; [4]
  Rape plant response rating: 0
rape; [5]
  Plant response rating, Rape: 0
rape; [7]
  Plant response rating, Rape: 0
rape; [2]
  Rape plant response rating: 0
rape; [3]
  Rape plant response rating: 0
rape; [8]
  Plant response rating, Rape: 0
soybean; [1]
  Soybean plant response rating: 0
soybean; [5]
  Plant response rating, Soybean: 0
soybean; [7]
  Plant response rating, Soybean: 0
soybean; [2]
  Soybean plant response rating: 0
soybean; [3]
  Soybean plant response rating: 3
soybean; [8]
  Plant response rating, Soybean: 0
Sugar beet; [1]
  Sugarbeets plant response rating: 0
Sugar beet; [5]
  Plant response rating, Sugarbeets: 0
Sugar beet; [7]
  Plant response rating, Sugarbeets: 0
Sugar beet; [2]
  Sugarbeets plant response rating: 0
Sugar beet; [3]
  Sugarbeets plant response rating: 0
Sugar beet; [8]
  Plant response rating, Sugarbeets: 0
velvetleaf; [1]
  Velvetleaf plant response rating: 0
velvetleaf; [5]
  Plant response rating, Velvetleaf: 0
velvetleaf; [7]
  Plant response rating, Velvetleaf: 0
velvetleaf; [2]
  Velvetleaf plant response rating: 0
velvetleaf; [3]
  Velvetleaf plant response rating: 0
velvetleaf; [8]
  Plant response rating, Velvetleaf: 4
wheat; [1]
  Wheat plant response rating: 0
wheat; [5]
  Plant response rating, Wheat: 0
wheat; [7]
  Plant response rating, Wheat: 0
wheat; [2]
  Wheat plant response rating: 0
wheat; [3]
  Wheat plant response rating: 0
wheat; [8]
  Plant response rating, Wheat: 0
Wild oat; [1]
  Wild oats plant response rating: 0
Wild oat; [5]
  Plant response rating, Wild oats: 0
Wild oat; [7]
  Plant response rating, Wild oats: 0
Wild oat; [2]
  Wild oats plant response rating: 0
Wild oat; [3]
  Wild oats plant response rating: 0
Wild oat; [8]
  Plant response rating, Wild oats: 2
Purple nutsedge; [1]
  Nutsedge plant response rating: 0
Purple nutsedge; [5]
  Plant response rating, Nutsedge: 0
Purple nutsedge; [7]
  Plant response rating, Nutsedge: 0
Purple nutsedge; [2]
  Nutsedge plant response rating: 0
Purple nutsedge; [3]
  Nutsedge plant response rating: 0
Purple nutsedge; [8]
  Plant response rating, Nutsedge: 0
rice; [9]
  Rice plant response rating: 0
rice; [10]
  Rice plant response rating (0 to 10 scale, 0 is no effect, 10 is complete control): 0
rice; [11]
  Rice plant response rating: 0
rice; [12]
  Rice plant response rating: 0
Smallflower flatsedge; [9]
  S. Flatsedge plant response rating: 0
Smallflower flatsedge; [10]
  S. Flatsedge plant response rating (0 to 10 scale, 0 is no effect, 10 is complete control): 0
Smallflower flatsedge; [11]
  S. Flatsedge plant response rating: 0
Smallflower flatsedge; [12]
  S. Flatsedge plant response rating: 0
Duck salad; [9]
  Ducksalad plant response rating: 0
Duck salad; [10]
  Ducksalad plant response rating (0 to 10 scale, 0 is no effect, 10 is complete control): 0
Duck salad; [11]
  Ducksalad plant response rating: 0
Duck salad; [12]
  Ducksalad plant response rating: 0
bamyardgrass; [9]
  Barnyardgrass plant response rating: 0
bamyardgrass; [10]
  Barnyardgrass plant response rating (0 to 10 scale, 0 is no effect, 10 is complete control): 0
bamyardgrass; [11]
  Barnyardgrass plant response rating: 0
bamyardgrass; [12]
  Barnyardgrass plant response rating: 0

## CC(C)N(C(=O)n1oc(=O)n(CC2CCCCO2)c1=O)c1ccc(F)cc1F (stereo not shown) [Compound 715]
bedstraw; [13]
  Bedstraw plant response rating: 0
bedstraw; [5]
  Plant response rating, Bedstraw: 0
bedstraw; [14]
  Bedstraw plant response rating: 0
blackgrass; [13]
  Blackgrass plant response rating: 9
blackgrass; [5]
  Plant response rating, Blackgrass: 9
blackgrass; [14]
  Blackgrass plant response rating: 9
blackgrass; [7]
  Plant response rating, Blackgrass: 10
Surinam grass; [13]
  B. signalgrass plant response rating: 8
Surinam grass; [5]
  Plant response rating, B. signalgrass: 8
Surinam grass; [14]
  B. signalgrass plant response rating: 9
Surinam grass; [7]
  Plant response rating, B. signalgrass: 10
cocklebur; [13]
  Cocklebur plant response rating: 0
cocklebur; [5]
  Plant response rating, Cocklebur: 0
cocklebur; [14]
  Cocklebur plant response rating: 0
cocklebur; [7]
  Plant response rating, Cocklebur: 0
corn; [13]
  Corn plant response rating: 0
corn; [5]
  Plant response rating, Corn: 0
corn; [14]
  Corn plant response rating: 2
crabgrass; [13]
  Crabgrass plant response rating: 9
crabgrass; [5]
  Plant response rating, Crabgrass: 9
crabgrass; [14]
  Crabgrass plant response rating: 10
Giant foxtail; [13]
  Giant foxtail plant response rating: 10
Giant foxtail; [5]
  Plant response rating, Giant foxtail: 10
Giant foxtail; [14]
  Giant foxtail plant response rating: 10
morningglory; [13]
  Morningglory plant response rating: 0
morningglory; [5]
  Plant response rating, Morningglory: 1
morningglory; [14]
  Morningglory plant response rating: 2
pigweed; [13]
  Redroot pigweed plant response rating: 8
pigweed; [5]
  Plant response rating, Redroot pigweed: 9
pigweed; [14]
  Redroot pigweed plant response rating: 10
rape; [13]
  Rape plant response rating: 2
rape; [5]
  Plant response rating, Rape: 8
rape; [14]
  Rape plant response rating: 8
soybean; [13]
  Soybean plant response rating: 0
soybean; [5]
  Plant response rating, Soybean: 0
soybean; [14]
  Soybean plant response rating: 0
Sugar beet; [13]
  Sugarbeets plant response rating: 4
Sugar beet; [5]
  Plant response rating, Sugarbeets: 5
Sugar beet; [14]
  Sugarbeets plant response rating: 7
velvetleaf; [13]
  Velvetleaf plant response rating: 0
velvetleaf; [5]
  Plant response rating, Velvetleaf: 5
velvetleaf; [14]
  Velvetleaf plant response rating: 6
wheat; [13]
  Wheat plant response rating: 0
wheat; [5]
  Plant response rating, Wheat: 0
wheat; [14]
  Wheat plant response rating: 3
Wild oat; [13]
  Wild oats plant response rating: 9
Wild oat; [5]
  Plant response rating, Wild oats: 9
Wild oat; [14]
  Wild oats plant response rating: 9
Purple nutsedge; [13]
  Nutsedge plant response rating: 0
Purple nutsedge; [5]
  Plant response rating, Nutsedge: 0
Purple nutsedge; [14]
  Nutsedge plant response rating: 0
rice; [15]
  Rice plant response rating: 0
rice; [16]
  Rice plant response rating: 0
rice; [11]
  Rice plant response rating: 0
rice; [12]
  Rice plant response rating: 0
Smallflower flatsedge; [15]
  S. Flatsedge plant response rating: 0
Smallflower flatsedge; [16]
  S. Flatsedge plant response rating: 0
Smallflower flatsedge; [11]
  S. Flatsedge plant response rating: 0
Smallflower flatsedge; [12]
  S. Flatsedge plant response rating: 0
Duck salad; [15]
  Ducksalad plant response rating: 0
Duck salad; [16]
  Ducksalad plant response rating: 0
Duck salad; [11]
  Ducksalad plant response rating: 0
Duck salad; [12]
  Ducksalad plant response rating: 0
bamyardgrass; [15]
  Barnyardgrass plant response rating: 0
bamyardgrass; [16]
  Barnyardgrass plant response rating: 0
bamyardgrass; [11]
  Barnyardgrass plant response rating: 0
bamyardgrass; [12]
  Barnyardgrass plant response rating: 0

From US6737383B1, “Herbicidal oxadiazolidines” (priority 1999, dated 2004)
